Reference: PMC5762315, “Inhibition of polo-like kinase 4 (PLK4): a new therapeutic option for rhabdoid tumors and pediatric medulloblastoma” (Oncotarget, 2017)
Where “and” joins values, the source holds several entries; their conditions need not be identical. Identical values can stand only once.

Assays:
Test in all cases: biochemical
Format in all cases: biochemical
various kinases [1] = target: various kinases (Homo sapiens, UniProt Q14680); conditions: MELK
various kinases [2] = target: various kinases (Homo sapiens, UniProt P21802, N549H); conditions: FGFR2 N549H
Chain of various kinases (Homo sapiens, UniProt P21802, N549H) (P21802 22-821 N549H): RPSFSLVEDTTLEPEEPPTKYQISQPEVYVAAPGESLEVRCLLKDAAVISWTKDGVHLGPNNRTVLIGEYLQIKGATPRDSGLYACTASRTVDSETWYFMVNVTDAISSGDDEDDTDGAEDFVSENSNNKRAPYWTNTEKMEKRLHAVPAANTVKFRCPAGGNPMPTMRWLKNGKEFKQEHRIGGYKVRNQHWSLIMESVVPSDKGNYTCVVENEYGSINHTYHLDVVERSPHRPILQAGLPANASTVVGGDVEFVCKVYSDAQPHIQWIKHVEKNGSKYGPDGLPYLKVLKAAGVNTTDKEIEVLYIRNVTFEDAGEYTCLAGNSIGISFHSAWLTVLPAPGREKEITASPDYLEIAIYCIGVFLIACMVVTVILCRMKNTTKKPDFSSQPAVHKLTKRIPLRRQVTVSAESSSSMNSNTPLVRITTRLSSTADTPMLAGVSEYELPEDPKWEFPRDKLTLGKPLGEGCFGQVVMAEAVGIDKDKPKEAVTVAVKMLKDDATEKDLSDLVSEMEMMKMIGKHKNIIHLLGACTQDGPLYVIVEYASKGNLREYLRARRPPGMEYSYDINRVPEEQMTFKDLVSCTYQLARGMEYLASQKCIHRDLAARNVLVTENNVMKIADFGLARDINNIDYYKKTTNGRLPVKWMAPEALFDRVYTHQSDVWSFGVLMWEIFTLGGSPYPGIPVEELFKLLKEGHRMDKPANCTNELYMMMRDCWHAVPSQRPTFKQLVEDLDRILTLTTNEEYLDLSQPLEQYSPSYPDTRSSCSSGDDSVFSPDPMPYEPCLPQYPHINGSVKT

various kinases [3] = target: various kinases (Homo sapiens, UniProt Q9Y463); conditions: DYRK1B
various kinases [4] = target: various kinases (Homo sapiens, UniProt Q9BUB5); conditions: MKNK1 (MNK1)
various kinases [5] = target: various kinases (Homo sapiens, UniProt P51812); conditions: kinase RPS6KA3 (RSK2); ZLYTE
Chain of various kinases (Homo sapiens, UniProt P51812) (P51812 whole entry): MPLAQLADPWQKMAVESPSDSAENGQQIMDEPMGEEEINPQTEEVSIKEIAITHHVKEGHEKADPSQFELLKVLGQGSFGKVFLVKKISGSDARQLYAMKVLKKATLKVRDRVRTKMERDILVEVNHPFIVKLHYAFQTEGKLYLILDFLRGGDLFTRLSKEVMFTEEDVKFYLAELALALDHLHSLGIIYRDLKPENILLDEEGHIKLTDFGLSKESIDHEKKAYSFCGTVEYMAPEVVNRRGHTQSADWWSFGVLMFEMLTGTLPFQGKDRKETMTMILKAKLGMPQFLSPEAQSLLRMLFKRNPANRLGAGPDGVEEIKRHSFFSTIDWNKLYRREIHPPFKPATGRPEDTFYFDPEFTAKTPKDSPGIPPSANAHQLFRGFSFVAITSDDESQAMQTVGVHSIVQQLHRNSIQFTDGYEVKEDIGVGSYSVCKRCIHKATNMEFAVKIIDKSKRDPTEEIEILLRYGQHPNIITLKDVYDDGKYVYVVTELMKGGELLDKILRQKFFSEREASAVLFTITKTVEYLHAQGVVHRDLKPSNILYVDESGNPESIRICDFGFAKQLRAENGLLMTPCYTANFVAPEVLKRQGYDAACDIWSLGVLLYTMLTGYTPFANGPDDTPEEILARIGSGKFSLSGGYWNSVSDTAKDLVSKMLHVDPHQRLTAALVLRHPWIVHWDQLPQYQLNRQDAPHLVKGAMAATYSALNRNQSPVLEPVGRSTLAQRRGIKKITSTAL

various kinases [6] = target: various kinases (Homo sapiens, UniProt Q6VAB6); conditions: KSR2
various kinases [7] = target: various kinases (Homo sapiens, UniProt Q15349); conditions: kinase RPS6KA2 (RSK3); ZLYTE
Chain of various kinases (Homo sapiens, UniProt Q15349) (Q15349 whole entry): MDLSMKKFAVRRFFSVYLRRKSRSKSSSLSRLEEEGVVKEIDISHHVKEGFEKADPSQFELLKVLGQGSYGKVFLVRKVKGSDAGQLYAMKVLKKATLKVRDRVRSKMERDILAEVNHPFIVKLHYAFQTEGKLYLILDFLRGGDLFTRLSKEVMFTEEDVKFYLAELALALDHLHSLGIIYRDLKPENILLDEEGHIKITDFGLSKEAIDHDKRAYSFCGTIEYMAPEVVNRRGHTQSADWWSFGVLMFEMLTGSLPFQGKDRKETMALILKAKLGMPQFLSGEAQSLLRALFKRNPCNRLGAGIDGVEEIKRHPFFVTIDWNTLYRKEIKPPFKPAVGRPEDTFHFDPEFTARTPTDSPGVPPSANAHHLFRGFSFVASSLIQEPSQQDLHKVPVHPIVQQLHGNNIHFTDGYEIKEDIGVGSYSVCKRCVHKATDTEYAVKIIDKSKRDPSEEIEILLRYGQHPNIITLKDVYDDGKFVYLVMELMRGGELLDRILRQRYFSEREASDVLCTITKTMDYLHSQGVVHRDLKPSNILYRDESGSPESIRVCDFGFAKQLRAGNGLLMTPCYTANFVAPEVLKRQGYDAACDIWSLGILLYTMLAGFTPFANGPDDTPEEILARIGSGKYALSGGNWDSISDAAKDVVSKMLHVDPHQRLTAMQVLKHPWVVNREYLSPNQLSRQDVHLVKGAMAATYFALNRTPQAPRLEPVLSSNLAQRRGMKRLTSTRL

various kinases [8] = target: various kinases (Homo sapiens, UniProt Q05397); conditions: kinase PTK2 (FAK); ZLYTE
Chain of various kinases (Homo sapiens, UniProt Q05397) (Q05397 whole entry): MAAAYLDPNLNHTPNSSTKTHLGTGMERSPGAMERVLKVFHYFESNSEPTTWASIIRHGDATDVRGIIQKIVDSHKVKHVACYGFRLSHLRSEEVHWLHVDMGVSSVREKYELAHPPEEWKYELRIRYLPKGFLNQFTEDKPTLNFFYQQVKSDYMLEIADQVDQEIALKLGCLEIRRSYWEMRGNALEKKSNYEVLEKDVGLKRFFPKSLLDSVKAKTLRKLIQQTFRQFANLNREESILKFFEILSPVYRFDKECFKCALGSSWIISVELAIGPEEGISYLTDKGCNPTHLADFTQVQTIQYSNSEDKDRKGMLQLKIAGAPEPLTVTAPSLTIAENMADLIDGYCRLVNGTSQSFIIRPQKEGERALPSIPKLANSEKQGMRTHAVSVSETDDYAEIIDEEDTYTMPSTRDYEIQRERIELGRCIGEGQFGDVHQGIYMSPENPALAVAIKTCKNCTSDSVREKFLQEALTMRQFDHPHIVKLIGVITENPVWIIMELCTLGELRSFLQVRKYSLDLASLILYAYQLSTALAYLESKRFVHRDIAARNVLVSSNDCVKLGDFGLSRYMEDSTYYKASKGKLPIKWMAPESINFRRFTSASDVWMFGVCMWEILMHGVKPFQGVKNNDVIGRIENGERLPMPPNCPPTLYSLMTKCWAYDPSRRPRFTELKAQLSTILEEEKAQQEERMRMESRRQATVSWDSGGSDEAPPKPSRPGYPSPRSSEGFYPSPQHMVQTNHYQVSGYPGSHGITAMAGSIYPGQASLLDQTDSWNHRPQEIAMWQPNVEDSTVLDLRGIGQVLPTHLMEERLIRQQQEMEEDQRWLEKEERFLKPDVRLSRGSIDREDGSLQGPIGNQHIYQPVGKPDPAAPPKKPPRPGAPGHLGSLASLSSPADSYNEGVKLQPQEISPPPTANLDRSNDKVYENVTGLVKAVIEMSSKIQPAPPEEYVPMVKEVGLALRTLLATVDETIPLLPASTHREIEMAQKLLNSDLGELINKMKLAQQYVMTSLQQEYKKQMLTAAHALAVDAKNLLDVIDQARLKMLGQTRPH

various kinases [9] = target: T1, various kinases (Homo sapiens, UniProt Q96BR1); conditions: kinase SGKL (SGK3); ZLYTE
T1 sequence (Q96BR1 1-496): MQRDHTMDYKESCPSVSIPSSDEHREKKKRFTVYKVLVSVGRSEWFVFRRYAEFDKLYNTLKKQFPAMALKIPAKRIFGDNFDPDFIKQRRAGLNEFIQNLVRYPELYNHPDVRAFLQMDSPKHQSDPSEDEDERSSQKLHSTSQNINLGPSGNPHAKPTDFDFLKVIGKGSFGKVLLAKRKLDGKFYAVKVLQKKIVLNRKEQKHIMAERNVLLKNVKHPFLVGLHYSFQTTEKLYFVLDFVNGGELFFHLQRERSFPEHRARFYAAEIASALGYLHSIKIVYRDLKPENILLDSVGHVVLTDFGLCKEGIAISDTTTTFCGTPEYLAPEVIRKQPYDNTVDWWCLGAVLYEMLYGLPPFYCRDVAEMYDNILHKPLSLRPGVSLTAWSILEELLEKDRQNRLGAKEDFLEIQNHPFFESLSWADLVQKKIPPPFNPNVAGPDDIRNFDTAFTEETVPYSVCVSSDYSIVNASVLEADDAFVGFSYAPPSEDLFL

various kinases [10] = target: various kinases (Homo sapiens, UniProt P80192); conditions: MAP3K9 (MLK1)
various kinases [11] = target: various kinases (Homo sapiens, UniProt Q13882); conditions: kinase PTK6 (Brk); ZLYTE
Chain of various kinases (Homo sapiens, UniProt Q13882) (Q13882 whole entry): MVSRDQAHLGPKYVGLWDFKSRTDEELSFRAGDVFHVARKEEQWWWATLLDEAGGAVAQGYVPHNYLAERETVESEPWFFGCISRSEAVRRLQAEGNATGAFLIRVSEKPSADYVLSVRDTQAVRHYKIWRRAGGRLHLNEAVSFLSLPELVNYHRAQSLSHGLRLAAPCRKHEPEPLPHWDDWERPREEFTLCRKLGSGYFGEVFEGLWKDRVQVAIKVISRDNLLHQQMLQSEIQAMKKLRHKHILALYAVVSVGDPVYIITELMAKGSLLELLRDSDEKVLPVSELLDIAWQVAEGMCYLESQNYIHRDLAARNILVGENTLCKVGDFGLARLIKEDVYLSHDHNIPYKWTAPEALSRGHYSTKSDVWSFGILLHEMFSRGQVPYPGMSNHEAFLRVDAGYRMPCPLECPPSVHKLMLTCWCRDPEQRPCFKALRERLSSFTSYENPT

various kinases [12] = target: various kinases (Homo sapiens, UniProt P43250); conditions: GRK6
various kinases [13] = target: various kinases (Homo sapiens, UniProt P42684); conditions: ABL2 (Arg)
various kinases [14] = target: various kinases (Homo sapiens, UniProt P07947); conditions: kinase YES1; ZLYTE
Chain of various kinases (Homo sapiens, UniProt P07947) (P07947 whole entry): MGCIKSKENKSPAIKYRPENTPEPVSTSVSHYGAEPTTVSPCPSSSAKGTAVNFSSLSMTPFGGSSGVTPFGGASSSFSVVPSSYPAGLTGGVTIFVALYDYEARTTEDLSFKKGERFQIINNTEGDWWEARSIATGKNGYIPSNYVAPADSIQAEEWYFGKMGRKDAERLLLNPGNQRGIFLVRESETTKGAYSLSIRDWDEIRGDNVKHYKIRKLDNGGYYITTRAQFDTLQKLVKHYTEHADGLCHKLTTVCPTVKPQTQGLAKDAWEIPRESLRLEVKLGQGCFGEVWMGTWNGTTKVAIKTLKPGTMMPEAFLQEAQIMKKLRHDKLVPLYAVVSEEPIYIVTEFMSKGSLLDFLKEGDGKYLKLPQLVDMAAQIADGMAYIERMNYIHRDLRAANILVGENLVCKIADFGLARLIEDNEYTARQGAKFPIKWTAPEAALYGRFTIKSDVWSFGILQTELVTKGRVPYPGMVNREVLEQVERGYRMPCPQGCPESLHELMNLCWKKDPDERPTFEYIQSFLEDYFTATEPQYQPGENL

various kinases [15] = target: various kinases (Homo sapiens, UniProt P54760); conditions: EPHB4
various kinases [16] = target: T2, various kinases (Homo sapiens, UniProt Q15139); conditions: kinase PRKD1 (PKC mu); ZLYTE
T2 sequence (Q15139 1-912): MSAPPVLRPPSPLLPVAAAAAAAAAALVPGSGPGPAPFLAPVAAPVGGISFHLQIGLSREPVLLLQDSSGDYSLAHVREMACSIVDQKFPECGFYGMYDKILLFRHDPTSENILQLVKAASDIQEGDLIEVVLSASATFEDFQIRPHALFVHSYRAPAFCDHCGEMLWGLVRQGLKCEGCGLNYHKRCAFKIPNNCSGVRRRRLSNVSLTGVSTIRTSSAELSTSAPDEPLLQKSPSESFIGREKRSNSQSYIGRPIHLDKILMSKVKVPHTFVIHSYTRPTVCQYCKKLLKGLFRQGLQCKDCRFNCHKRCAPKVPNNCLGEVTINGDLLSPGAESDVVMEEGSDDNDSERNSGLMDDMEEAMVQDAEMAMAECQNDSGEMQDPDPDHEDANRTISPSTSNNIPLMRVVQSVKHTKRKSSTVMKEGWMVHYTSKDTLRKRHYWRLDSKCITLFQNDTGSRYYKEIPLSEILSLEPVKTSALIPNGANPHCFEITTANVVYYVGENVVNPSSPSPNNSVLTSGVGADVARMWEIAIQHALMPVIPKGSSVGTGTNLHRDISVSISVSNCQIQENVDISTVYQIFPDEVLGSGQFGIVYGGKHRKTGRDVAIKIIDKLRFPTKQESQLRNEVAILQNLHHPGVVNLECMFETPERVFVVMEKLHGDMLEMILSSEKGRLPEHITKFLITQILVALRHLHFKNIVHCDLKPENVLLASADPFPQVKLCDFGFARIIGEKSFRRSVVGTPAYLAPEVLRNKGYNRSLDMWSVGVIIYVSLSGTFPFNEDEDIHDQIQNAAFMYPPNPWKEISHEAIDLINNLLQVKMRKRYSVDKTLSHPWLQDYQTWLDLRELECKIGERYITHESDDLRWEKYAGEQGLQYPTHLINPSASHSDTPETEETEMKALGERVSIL

various kinases [17] = target: various kinases (Homo sapiens, UniProt P17252); conditions: kinase PRKCA (PKC alpha); ZLYTE
various kinases [18] = target: various kinases (Homo sapiens, UniProt Q13557); conditions: CAMK2D (CaMKII delta)
various kinases [19] = target: various kinases (Homo sapiens, UniProt P22607); conditions: FGFR3
various kinases [20] = target: various kinases (Homo sapiens, UniProt Q9NWZ3); conditions: IRAK4
Wherever % Inhibition Average is given: test concentration or dose not given here.
Wherever % Inhibition Duplicate #1 is given: test concentration or dose not given here.
Wherever % Inhibition Duplicate #2 is given: test concentration or dose not given here.

COc1ccc2c(c1)[C@]1(C[C@H]1c1ccc3c(/C=C/c4ccc(CN5C[C@@H](C)O[C@@H](C)C5)cc4)n[nH]c3c1)C(=O)N2 [CFI-400945]
% Inhibition (various kinases [1]): 9% and 18%
% Inhibition (various kinases [2]): 12% and 18%
% Inhibition (various kinases [3]): -1% and -5%
% Inhibition (various kinases [4]): 6% and 1%
% Inhibition Average (various kinases [5]): 2%
% Inhibition Duplicate #1 (various kinases [5]): 1%
% Inhibition Duplicate #2 (various kinases [5]): 2%
% Inhibition (various kinases [6]): 3% and 4%
% Inhibition Average (various kinases [7]): 12%
% Inhibition Duplicate #1 (various kinases [7]): 11%
% Inhibition Duplicate #2 (various kinases [7]): 13%
% Inhibition Average (various kinases [8]): 4%
% Inhibition Duplicate #1 (various kinases [8]): 5%
% Inhibition Duplicate #2 (various kinases [8]): 3%
% Inhibition Average (various kinases [9]): 3%
% Inhibition Duplicate #1 (various kinases [9]): 4%
% Inhibition Duplicate #2 (various kinases [9]): 2%
% Inhibition (various kinases [10]): 9% and 2%
% Inhibition Average (various kinases [11]): 4%
% Inhibition Duplicate #1 (various kinases [11]): 5%
% Inhibition Duplicate #2 (various kinases [11]): 3%
% Inhibition (various kinases [12]): 5%
% Inhibition (various kinases [13]): 58% and 63%
% Inhibition Average (various kinases [14]): 17%
% Inhibition Duplicate #1 (various kinases [14]): 16%
% Inhibition Duplicate #2 (various kinases [14]): 18%
% Inhibition (various kinases [15]): 5% and 8%
% Inhibition Average (various kinases [16]): 0%
% Inhibition Duplicate #1 (various kinases [16]): -1%
% Inhibition Duplicate #2 (various kinases [16]): 1%
% Inhibition Average (various kinases [17]): 5%
% Inhibition Duplicate #1 (various kinases [17]): -1%
% Inhibition Duplicate #2 (various kinases [17]): 12%
% Inhibition (various kinases [18]): 28% and 37%
% Inhibition (various kinases [19]): 11% and 14%
% Inhibition (various kinases [20]): 0% and -3%
